Key:
NF-κB target genes [1] = assay: LPS-induced systemic endotoxemia / acute lung inflammation, qRT-PCR of NF-κB target genes; assay type: in vivo, mice; details: 10 mg/kg
Method: SR12343 and SR12460 initially were tested in an acute model of LPS-induced systemic endotoxemia to determine their NF-κB inhibitory effects in vivo. C57BL/6J mice were pretreated with vehicle control, 8K-NBD peptide or NBD mimetics at 10 mg/kg for 30 min, followed by LPS induction at 10 mg/kg. Lung and liver were harvested 2-4 hr post-treatment for qRT-PCR analysis of NF-κB target genes.
LPS (strain O111:B4) was prepared in PBS at a sub-lethal dose of 10 mg/kg. 8-10 weeks old female WT mice (20-30 g) were dosed i.p. with vehicle, NBD peptide (10 mg/kg) or small molecules (10 mg/kg) for 30 min and followed by i.p. injection of saline (1 ml/kg) or LPS (10 mg/kg). Mice were euthanized 2-4 hr post-treatment and lung was collected for further analysis.
(§1) Snap frozen tissues were preserved in RNAlater RNA stabilization solution (ThermoFisher) before processed. Total RNA was extracted from cells or tissues using TRIZOL reagent (Life Technologies) and 1500 ng of messenger RNA (mRNA) was subjected to synthesize complementary DNA (cDNA) using SuperScript VILO cDNA synthesis kit. qRT-PCR was performed in a StepOnePlus Real-Time PCR system using Platinum SYBR Green qPCR SuperMix-UDG (ThermoFisher). Target gene expression was calculated using the comparative CT method (ΔΔCT) and normalized to an internal control gene Actb (β-actin). Primers used are as follows: Ptgs2 (COX-2) forward: […]; Ptgs2 (COX-2) reverse: […]; Nfkbia (IκBα) forward: […]; Nfkbia (IκBα) reverse: […]; Il1b (IL-1β) forward: […]; Il1b (IL-1β) reverse: […]; Nos2 (iNOS) forward: […]; Nos2 (iNOS) reverse: […]; Tnf (TNF) forward: […]; Tnf (TNF) reverse: […]; Il6 (IL-6) forward: […]; Il6 (IL-6) reverse: […]. Actb (β-actin) forward: […]; Actb (β-actin) reverse: […];

NF-κB target genes [2] = assay: qRT-PCR of NF-κB target genes in LPS-stimulated Raw 264.7 cells; assay type: cell-based, mouse; details: Raw 264.7, 1 ug/ml LPS 2 hr; mimetics 50 μM, IKKi VII 2 μM, 8K-NBD 400 μM
Method: Effect of the NBD mimetics on expression of NF-kB regulated genes in the Raw mouse macrophage cell line. Treatment of the Raw cells with the indicated drugs prior to addition of LPS reduced NF-kB-mediated gene expression as measured by RT-PCR.
To determine whether the inhibitory effect of the mimetics is TNF-α-dependent, LPS-mediated NF-κB activation via TLR4 was examined to determine a broader inhibitory effect of the novel NBD mimetics. NF-κB was stimulated in Raw 264.7 by 1 ug/ml of LPS for 2 hr and genes transcriptionally regulated by NF-κB were determined by qRT-PCR analysis. Both an IKK active site inhibitor IKKi VII (2 μM) and the 8K-NBD peptide (400 μM) were included as positive controls and the expression of COX2, IL-6, IL-1β, TNF-α, IκBα and iNOS were assessed.
Raw 264.7 cells were treated with a 50 μM solution of the SR compound for 30 minutes, and then the mRNA was harvested 2 hours after addition of 1 μg/mL LPS.
as §1

[3] = tested on: embryonic fibroblasts from Ercc1−/− mice; assay: Senescence rescue assay in ERCC1-deficient murine embryonic fibroblasts (SA-ß-gal); assay type: cell-based, mouse; details: oxidative stress conditions (20% O2)
From the text: In an attempt to identify new drugs able to improve healthspan, we have developed an assay for screening for drugs able to rescue primary “aged” fibroblasts from senescence. This assay uses murine embryonic fibroblasts (MEFs) from mice with accelerated aging due to a deficiency in an important DNA repair pathway, ERCC1-XPF. These MEFs undergo rapid senescence in culture, especially when grown under the high oxygen conditions that confers oxidative stress (FIGS. 18 and 19).

[4] = tested on: K14-Cre; Ercc1−/flox mice; assay: Topical treatment of skin aging in K14-Cre; Ercc1−/flox mice; assay type: in vivo, mouse; details: daily
Method: To test the ability of NBDA-1 to function in vivo, the drug was tested in several models of aging. In FIG. 12, the ability of topical treatment of NBDA-1 to reduce signs of skin aging is shown. Areas on the back of normal mice or mice with enhanced skin aging (K14-Cre; Ercc1^−/flox) were shaved and then treated daily with drugs or control creams.

Ercc1−/Δ mice = assay: Systemic treatment of Ercc1−/Δ mice, intervertebral disc proteoglycan; assay type: in vivo, mouse; details: IP 3× a week, 10 mg/kg for 8 weeks
Method: The ability of the compounds to work systemically was also tested. In these experiments, Ercc1^−/Δ mice with accelerated aging (lifespan of 5 months) were treated systemically, 3× a week, by IP injection at a dose of 10 mg/kg for 8 weeks. Since we previously had shown that the NF-κB is a key factor in driving intervertebral disc degenerated, we assessed the effects of treatment on proteoglycan synthesis and content in the discus following treatment.

NF-κB = assay: EMSA of NF-κB DNA binding in C2C12 cells; assay type: cell-based, mouse; details: 200 μM
Method: To confirm that the NBD mimetics reduce IKK activity, the extent of phosphorylation of the IKK target, IκBα, in response to 10 ng/ml of TNF-α was determined by Western blot at 0, 5 and 10 min after TNF-α stimulation. […] To determine if the mimetics also reduce NF-κB DNA binding activity, electrophoretic mobility shift assay (EMSA) was conducted both in vivo and in vitro.
Cytoplasmic and nuclear fractions were extracted using the NE-PER nuclear and cytoplasmic extraction reagents (ThermoFisher) according to the manufacturer's instructions. The gel shift assay was performed by following the previously described method (41). In brief, 5 μg of nuclear extract was incubated with gel shift binding buffer and an α-^32P-deoxycytodine triphosphate-radiolabeled NF-κB probe for 20 min at room temperature (MP Biomedicals). The oligonucleotide sequences are as follows: NF-κB template, 5′-[…]-3′; NF-κB annealing, 5′-[…]-3′. The reaction product was separated on a 6% non-denaturing polyacrylamide gel.

Row | SMILES | inhibition of NF-κB/IKK in liver and lung (NF-κB target genes [1]; LPS 10 mg/kg) | transcription of NF-κB target genes (COX2, IL-6, IL-1β, TNF-α, IκBα, iNOS) (NF-κB target genes [2]) | NF-κB target gene expression in lung (iNOS, IκBα, COX2, IL-6) (NF-κB target genes [1]; 30 min before LPS 10 mg/kg, 2-4 hr) | NF-κB target gene expression in liver (NF-κB target genes [1]; LPS 10 mg/kg) | TNF-α expression in lung (NF-κB target genes [1]; LPS 10 mg/kg) | senescence (SA-ß-gal staining) of ERCC1-deficient MEFs [3] | epidermal thickness / skin architecture [4] | proteoglycan synthesis and content in the intervertebral disc (Ercc1−/Δ mice) | TNFα-induced NF-κB DNA binding activity (EMSA) (NF-κB)
1 | O=C(CNCCc1cc(F)cc(F)c1)Nc1ccc(Cl)cn1 [SR12460, N-(5-chloropyridin-2-yl)-2-((3,5-difluorophenethyl)amino)acetamide] | less potent compared to SR12343 | significantly downregulate the transcription of all NF-κB target genes tested | – | – | – | – | – | – | –
2 | O=C(CNc1ccc(Cl)cn1)NCCc1cccc(Br)c1 [SR12343, N-(3-bromophenethyl)-2-((5-chloropyridin-2-yl)amino)acetamide] | – | significant inhibition on COX2, IL-6 and iNOS expression | downregulate NF-κB transcriptional activity significantly in lung | inhibiting only COX2 expression significantly | unchanged | – | – | – | –
3 | Nc1ncccc1C(=O)OCC(=O)Nc1ccc(Cl)cc1F [NBDA-1, 2-((4-chloro-2-fluorophenyl)amino)-2-oxoethyl 2-aminonicotinate] | – | – | – | – | – | reduced senescence | improved epidermal thickness to a greater extent than the peptide on which it was modeled | increased the proteoglycan content | significantly decreased TNFα-induced NF-κB DNA binding activity

— patent US10758522B2, “Small molecule analogs of the nemo binding peptide” (THE SCRIPPS RESEARCH INSTITUTE, priority 2015, dated 2020)
